Laboratory results published in patent US12357650B2, “Methods and compositions for cancer therapies that include delivery of halogenated thymidines and thymidine phosphorlylase inhibitors in combination with radiation” (Shuttle Pharmaceuticals, Inc., priority 2017, dated 2025).
Where “and” joins values, the source holds several entries; their conditions need not be identical. Equal entries are not always repeated. Where two headings read alike, the source gives them in different places.

Tests used:
[1] = system: DNA of tumors and adjacent normal tissue; details: small series of patients with head and neck cancers or liver metastases from colorectal cancer; cited from earlier work
[2] = Pharmacokinetic profile of IUdR (20 mg/kg) with and without Tipiracil in rats following single oral administration; assay type: in vivo, male Sprague-Dawley rats; details: for Plasma Concentration of Compound A / concentration at 0.083 hr / concentration at 0.25 hr / concentration at 0.5 hr / concentration at 1 hr: PO-20 mg/kg Compound A alone or + 7.9 mg/kg Compound B; for concentration at 0.083 hr / concentration at 0.25 hr / concentration at 0.5 hr / concentration at 1 hr: oral; for AUC(0-t) / Cmax: po
Protocol: (§1) The purpose of this study was to determine the pharmacokinetics parameters of IUdR in male Sprague-Dawley rats following single oral (PO) administration the IUdR (i.e., Compound A) and Tipiracil (i.e., Compound B).
A control formulation was prepared where Compound A was dissolved in 5% DMSO+95% PBS to yield a final concentration of 2 mg/mL for oral administration. The prepared formulation was colorless clear solution (pH˜8).
A second formulation was prepared where Compound A and Compound B were dissolved in 5% DMSO+95% PBS to yield a final concentration of 2 mg/mL (Compound A) and 0.79 mg/mL (Compound B) for oral administration. The prepared formulation was colorless clear solution (pH˜7).
(§2) Animal Acquisition and Assignment to Study. A total of 8 male experimental Sprague-Dawley Rats were transferred from stock colony, and 6 animals were placed on study.
(§3) Dose Administration. The test article was administered via a single oral administration.
(§4) Sample Collection and Bioanalysis. Blood samples (approximately 200 μL/sample) were collected via jugular vein at Pre-dose and Post-dose (5 min, 15 min, 30 min, 1 h, 2 h, 4 h, 6 h, 8 h and 24 h). Blood samples were placed into tubes containing K2EDTA and centrifuged conditions at 8000 rpm for 6 minutes at 2-8° C. to separate plasma from the samples. Following centrifugation, the resulting plasma were transferred to clean tubes and stored frozen at −80° C. pending bioanalysis.
(§5) Pharmacokinetic Analysis. The PK analysis and interpretation of the results were conducted by Medicilon Preclinical Research (Shanghai) LLC. A non-compartmental module of WinNonlin® Professional was used to calculate parameters. Any BLQs (LLOQ=5.0 ng/mL for Compound A) were omitted when calculate the PK parameters.
(§6) Clinical Observations. No abnormal observations were noted.

[3] = Pharmacokinetic profile of IUdR (100 mg/kg) with and without Tipiracil in rats following single oral administration; assay type: in vivo, male Sprague-Dawley rats; details: PO-100 mg/kg Compound A alone or + 7.9 mg/kg Compound B, individual animals, LLOQ 10 ng/mL
Protocol: as §1
A control formulation was prepared where Compound A was dissolved in 5% DMSO+95% PBS to yield a final concentration of 10 mg/mL for oral administration. The prepared formulation was white suspension (pH˜7).
A second formulation was prepared where Compound A and Compound B were dissolved in 5% DMSO+95% PBS to yield a final concentration of 10 mg/mL (Compound A) and 0.79 mg/mL (Compound B) for oral administration. The prepared formulation was white suspension (pH˜7).
as §2, §3, §4
as §5, with “(LLOQ=10.0” for “(LLOQ=5.0”
as §6

[4] = single oral dose, PO-20 (Compound A) alone or + 7.9 (Compound B) mg/kg, individual animals

For `O=c1[nH]c(=O)n([C@H]2C[C@H](O)[C@@H](CO)O2)cc1I` [Compound A, 5-iodo-2′-deoxyuridine], the “% IUdR-DNA incorporation in adjacent normal tissue” value [1] is given as “less than 1%”, the “% IUdR-DNA incorporation in tumors” value [1] is given as ≤ 5% and the “Plasma Concentration of Compound A” value ([2]; 0.083 hr, individual animals, LLOQ 5 ng/mL) is given as 25.16 ng/mL and 16.04 ng/mL. For the same compound, the “Plasma Concentration of Compound A” value ([2]; 0.25 hr, individual animals, LLOQ 5 ng/mL) was 54.67 ng/mL and 56.48 ng/mL, the “Plasma Concentration of Compound A” value ([2]; 0.5 hr, individual animals, LLOQ 5 ng/mL) was 63.23 ng/mL and 57.34 ng/mL and the “Plasma Concentration of Compound A” value ([2]; 1 hr, individual animals, LLOQ 5 ng/mL) was 19.19 ng/mL and 21.93 ng/mL. For the same compound, the “Plasma Concentration of Compound A” value ([2]; 2 hr, individual animals, LLOQ 5 ng/mL) was “BLQ”, the “Plasma Concentration of Compound A” value ([2]; 4 hr, individual animals, LLOQ 5 ng/mL) was “BLQ” and the “Plasma Concentration of Compound A” value ([2]; 6 hr, individual animals, LLOQ 5 ng/mL) was “BLQ”. For the same compound, the “Plasma Concentration of Compound A” value ([2]; 8 hr, individual animals, LLOQ 5 ng/mL) was “BLQ”, the “Plasma Concentration of Compound A” value ([2]; 24 hr, individual animals, LLOQ 5 ng/mL) was “BLQ” and the Tmax ([2]; male, Sprague-Dawley, rat, plasma, 20 mg/kg, single oral dose, PO-20 (Compound A) alone or + 7.9 (Compound B) mg/kg, individual animals) was 30 min. For the same compound, the concentration at 0.083 hr ([2]; male, Sprague-Dawley, rat, plasma, 20 mg/kg, 0.083 hr, group mean, read-out: Plasma Concentration of Compound A, Mean) was 21.9 ng/mL, the concentration at 0.083 hr ([2]; male, Sprague-Dawley, rat, plasma, 20 mg/kg, 0.083 hr, individual animals, LLOQ 5 ng/mL, read-out: Plasma Concentration of Compound A) was 24.5 ng/mL and the concentration at 0.25 hr ([2]; male, Sprague-Dawley, rat, plasma, 20 mg/kg, 0.25 hr, group mean, read-out: Plasma Concentration of Compound A, Mean) was 49.2 ng/mL. It also gave a concentration at 0.25 hr ([2]; male, Sprague-Dawley, rat, plasma, 20 mg/kg, 0.25 hr, individual animals, LLOQ 5 ng/mL, read-out: Plasma Concentration of Compound A) of 36.5 ng/mL, a concentration at 0.5 hr ([2]; male, Sprague-Dawley, rat, plasma, 20 mg/kg, 0.5 hr, group mean, read-out: Plasma Concentration of Compound A, Mean) of 57.7 ng/mL and a concentration at 0.5 hr ([2]; male, Sprague-Dawley, rat, plasma, 20 mg/kg, 0.5 hr, individual animals, LLOQ 5 ng/mL, read-out: Plasma Concentration of Compound A) of 52.5 ng/mL. The concentration at 1 hr ([2]; male, Sprague-Dawley, rat, plasma, 20 mg/kg, 1 hr, group mean, read-out: Plasma Concentration of Compound A, Mean) was 22.8 ng/mL, the concentration at 1 hr ([2]; male, Sprague-Dawley, rat, plasma, 20 mg/kg, 1 hr, individual animals, LLOQ 5 ng/mL, read-out: Plasma Concentration of Compound A) was 27.2 ng/mL and the AUC(0-t) ([2]; male, Sprague-Dawley, rat, plasma, 20 mg/kg, oral administration, Example 2 (20 mg/kg IUdR, ± 7.9 mg/kg Tipiracil), comparison table, mean, read-out: AUC(0-t) of Compound A) was 40.3 ng·h/mL. It also gave a Cmax ([2]; male, Sprague-Dawley, rat, plasma, 20 mg/kg, oral administration, Example 2 (20 mg/kg IUdR, ± 7.9 mg/kg Tipiracil), comparison table, mean, read-out: Cmax of Compound A) of 57.7 ng/mL, an AUC(0-t) ([2]; male, Sprague-Dawley, rat, plasma, 20 mg/kg, single oral dose, PO-20 (Compound A) alone or + 7.9 (Compound B) mg/kg, group mean, read-out: AUC(0-t) of Compound A, Mean) of 40.3 ng·h/mL and a Cmax ([2]; male, Sprague-Dawley, rat, plasma, 20 mg/kg, single oral dose, PO-20 (Compound A) alone or + 7.9 (Compound B) mg/kg, group mean, read-out: Cmax of Compound A, Mean) of 57.7 ng/mL. For the same compound, the AUC(0-t) ([2]; male, Sprague-Dawley, rat, plasma, 20 mg/kg, single oral dose, PO-20 (Compound A) alone or + 7.9 (Compound B) mg/kg, individual animals, read-out: AUC(0-t) of Compound A) was 40.8 ng·h/mL, the Cmax ([2]; male, Sprague-Dawley, rat, plasma, 20 mg/kg, single oral dose, PO-20 (Compound A) alone or + 7.9 (Compound B) mg/kg, individual animals, read-out: Cmax of Compound A) was 57.3 ng/mL and the “AUC(0-t) of Compound A” value [2, 4] was 37.15 ng·h/mL and 43.05 ng·h/mL. The “Cmax of Compound A” value [2, 4] was 52.45 ng/mL and 63.23 ng/mL, the “Plasma Concentration of Compound A” value ([3]; 0.083 hr) was 192.41 ng/mL and 168.24 ng/mL and the “Plasma Concentration of Compound A” value ([3]; 0.25 hr) was 628.30 ng/mL and 538.67 ng/mL. The “Plasma Concentration of Compound A” value ([3]; 0.5 hr) was 755.39 ng/mL and 684.80 ng/mL and the “Plasma Concentration of Compound A” value ([3]; 1 hr) was 596.55 ng/mL and 772.49 ng/mL.
